Here are results for 63 compounds from US6608083B1, “Quinoline derivatives(2)” (SmithKline Beecham Farmaceutici S.p.A, priority 1994, dated 2003).

pKi: −log10 of the molar value. Where a name gives a salt, the structure may show the parent alone.

Tested on in the first series: not given
Assay: not given
`COC(=O)[C@H](NC(=O)c1cc(-c2ccccc2)nc2ccccc12)c1ccc(O)cc1.Cl`: the melting point is 140 °C (dec.).

With `O=C(NC(C(=O)O)c1ccccc1)c1cc(-c2ccccc2)nc2ccccc12` (stereo not drawn) (as salt: HCl) [Example 92], the melting point is 203 to 205 °C.

Take `COC(=O)C(NC(=O)c1cc(-c2ccccc2)nc2ccccc12)C1=CCC=CC1` (stereo not drawn) [Example 16]: the melting point was 120 to 122 °C. Still for that read-out and setting: with `C[C@H](O)[C@H](NC(=O)c1cc(-c2ccccc2)nc2ccccc12)c1ccccc1` [Example 17, (R,S)-N-[α-(1-hydroxyethyl)benzyl]-2-phenylquinoline-4-carboxamide] the figure was 204 to 205 °C. Same read-out and setting: with `CCC(NC(=O)c1c(OC)c(-c2ccccc2)nc2ccccc12)c1ccccc1` (stereo not drawn) [Example 18] the figure was 163 to 165 °C; with `CCCCc1c(-c2ccccc2)nc2ccccc2c1C(=O)NC(CC)c1ccccc1` (stereo not drawn) [Example 19], 147 to 150 °C; with `COC(=O)C(NC(=O)c1c2c(nc3ccccc13)-c1ccccc1CCC2)c1ccccc1` (stereo not drawn) [Example 20], 186 to 188 °C. On the same count and under the same terms, with `COC(=O)C(NC(=O)c1cc(-c2ccccc2OC)nc2ccccc12)c1ccccc1` (stereo not drawn) [Example 24] the figure was 124 to 125 °C; with `CCC(NC(=O)c1c(-c2ccccc2)c(-c2ccccc2)nc2ccccc12)c1ccccc1` (stereo not drawn) [Example 25], 198 to 200 °C. The compound `COC(=O)C(NC(=O)c1cc(-c2ccccc2F)nc2ccccc12)c1ccccc1` (stereo not drawn) [Example 26] gave a melting point of 146 to 147 °C. Still for that read-out and setting: then `CCC(NC(=O)c1cc(-c2ccccc2)nc2ccccc12)c1ccc(Cl)c(Cl)c1` (stereo not drawn) [Example 27], with 193 to 194 °C; and `O=C(NC(CO)c1ccccc1)c1cc(-c2ccccc2)nc2ccccc12` (stereo not drawn) [Example 28], with 117 to 119 °C; and `COC(=O)C(NC(=O)c1c(C)c(-c2ccccc2)nc2ccccc12)c1ccccc1` (stereo not drawn) [Example 30], with 180 to 181 °C. On the same count and under the same terms, then `COC(=O)C(NC(=O)c1cc(-c2ccccc2)nc2cc(Cl)ccc12)c1ccccc1` (stereo not drawn) [Example 32], with 180 to 183 °C. Still for that read-out and setting: then `COC(=O)C(NC(=O)c1cc(-c2ccccc2)nc2ccc(C)cc12)c1ccccc1` (stereo not drawn) [Example 33], with 179 to 181 °C; and `COCC(NC(=O)c1cc(-c2ccccc2)nc2ccccc12)c1ccccc1` (stereo not drawn) [Example 34], with 144 to 145 °C; and `COC(=O)C(NC(=O)c1cc(-c2ccccc2)nc2ccc(Cl)cc12)c1ccccc1` (stereo not drawn) [Example 35], with 197 to 199 °C. Turning to `CCc1c(-c2ccccc2)nc2ccccc2c1C(=O)NC(C(=O)OC)c1ccccc1` (stereo not drawn) [Example 36], the melting point was 156 to 157 °C.

Compound `CCCC(NC(=O)c1cc(-c2ccccc2)nc2ccccc12)c1ccccc1` (stereo not drawn) [Example 37] yielded a melting point of 149 to 150 °C. The same measure, in the same setting: with `CCc1c(-c2ccccc2)nc2ccccc2c1C(=O)NC(CC)c1ccccc1` (stereo not drawn) [Example 38] the figure was 158 to 159 °C; with `CCC(NC(=O)c1c(N2C(=O)c3ccccc3C2=O)c(-c2ccccc2)nc2ccccc12)c1ccccc1` (stereo not drawn) [Example 39], 201 to 202 °C. On the same count and under the same terms, then `CCCc1c(-c2ccccc2)nc2ccccc2c1C(=O)NC(CC)c1ccccc1` (stereo not drawn) [Example 40], with 149 to 151 °C. As for `CCC(NC(=O)c1c(C)c(-c2ccc(Br)cc2)nc2ccc(Br)cc12)c1ccccc1` (stereo not drawn) [Example 41], the melting point lay in the range of 230 to 231 °C.

In turn, `CCC(NC(=O)c1c(C)c(-c2ccccc2)nc2ccc(Br)cc12)c1ccccc1` (stereo not drawn) [Example 42] had a melting point of 179 to 180 °C. On the same count and under the same terms, with `COC(=O)C(NC(=O)c1cc(-c2ccccc2)nc2ccc(OC)cc12)c1ccccc1` (stereo not drawn) [Example 43] the figure was 209 to 211 °C. On the same count and under the same terms, then `COC(=O)C(NC(=O)c1cc(-c2cc3ccccc3o2)nc2ccccc12)c1ccccc1` (stereo not drawn) [Example 44], with 240 to 241 °C; and `O=C(NC(Cc1ccccc1)c1ccccc1)c1cc(-c2ccccc2)nc2ccccc12` (stereo not drawn) [Example 45], with 194 to 196 °C.

The compound `O=C(NC(c1ccccc1)C(F)(F)F)c1cc(-c2ccccc2)nc2ccccc12` (stereo not drawn) [Example 46] showed a melting point of 180 to 181 °C. The same measure, in the same setting: with `CCC(NC(=O)c1cc(-c2ccccc2)nc2ccccc12)c1ccc(Cl)cc1` (stereo not drawn) [Example 49] the figure was 177 to 178 °C.

`COC(=O)C(c1ccccc1)N(C)C(=O)c1cc(-c2ccccc2)nc2ccccc12` (stereo not drawn) [Example 50]: the melting point was in the range of 128 to 129 °C. On the same count and under the same terms, then `COC(=O)C(NC(=O)c1cc(-c2ccsc2)nc2ccccc12)c1ccccc1` (stereo not drawn) [Example 51], with 169 to 171 °C; and `COC(=O)C(NC(=O)c1c2c(nc3ccccc13)-c1ccccc1CC2)c1ccccc1` (stereo not drawn) [Example 52], with 217 to 219 °C; and `COC(=O)C(NC(=O)c1cc(-c2ccc[nH]2)nc2ccccc12)c1ccccc1` (stereo not drawn) [Example 53], with 181 to 182 °C. Still for that read-out and setting: then `COC(=O)C(NC(=O)c1cc(-c2nccs2)nc2ccccc12)c1ccccc1` (stereo not drawn) [Example 54], with 209 to 211 °C.

`CCCCC(NC(=O)c1cc(-c2ccccc2)nc2ccccc12)c1ccccc1` (stereo not drawn) [Example 56] returned a melting point of 155 to 156 °C. The same measure, in the same setting: then `COC(=O)C(NC(=O)c1cc(-c2ccc(C)cc2)nc2ccccc12)c1ccccc1` (stereo not drawn) [Example 57], with 172 to 174 °C; and `COC(=O)C(NC(=O)c1cc(-c2ccccc2C)nc2ccccc12)c1ccccc1` (stereo not drawn) [Example 59], with 180 to 182 °C; and `COC(=O)C(NC(=O)c1cc(-c2ccc(OC)cc2)nc2ccccc12)c1ccccc1` (stereo not drawn) [Example 60], with 182 to 183 °C. The compound `O=C(NC1(c2ccccc2)CCCC1)c1cc(-c2ccccc2)nc2ccccc12` [Example 61] registered a melting point of 164 to 165 °C.

`COC(=O)C(NC(=O)c1cc(-c2ccc(O)cc2)nc2ccccc12)c1ccccc1` (stereo not drawn) [Example 62]: the melting point fell in the range of 226 to 227 °C. Still for that read-out and setting: then `COC(=O)C(NC(=O)c1cc(-c2ccc3c(c2)OCO3)nc2ccccc12)c1ccccc1` (stereo not drawn) [Example 63], with 186 to 187 °C; and `CC(C)(NC(=O)c1cc(-c2ccccc2)nc2ccccc12)c1ccccc1` [Example 64], with 173 to 174 °C; and `CCC(NC(=O)c1cc(-c2ccccc2)nc2ccccc12)c1ccc(C)cc1` (stereo not drawn) [Example 65], with 160 to 162 °C. `COC(=O)C(NC(=O)c1cc(-c2cc[nH]c2)nc2ccccc12)c1ccccc1` (stereo not drawn) [Example 66] returned a melting point of 202 to 204 °C. Same read-out and setting: then `COC(=O)C(NC(=O)c1cc(-c2ccc(Cl)c(Cl)c2)nc2ccccc12)c1ccccc1` (stereo not drawn) [Example 67], with 164 to 165 °C; and `NCC(NC(=O)c1cc(-c2ccccc2)nc2ccccc12)c1ccccc1` (stereo not drawn) [Example 68], with 139 to 141 °C; and `CCC(NC(=O)c1c(Cl)c(-c2ccccc2)nc2ccccc12)c1ccccc1` (stereo not drawn) [Example 70], with 137 to 139 °C. On the same count and under the same terms, with `CCC(NC(=O)c1c(Br)c(-c2ccccc2)nc2ccccc12)c1ccccc1` (stereo not drawn) [Example 71] the figure was 119 to 122 °C; with `CC(C)C(NC(=O)c1cc(-c2ccccc2)nc2ccccc12)c1ccccc1` (stereo not drawn) [Example 72], 165 to 166 °C. For the compound `COC(=O)C(NC(=O)c1cc(-c2ccccc2)nc2ccc(F)cc12)c1ccccc1` (stereo not drawn) [Example 75], the melting point lay within 174 to 176 °C. In turn, `COC(=O)C(NC(=O)c1cc(C2CCCCC2)nc2ccccc12)c1ccccc1` (stereo not drawn) [Example 76] came in with a melting point of 151 to 153 °C. Still for that read-out and setting: with `COC(=O)C(NC(=O)c1cc(-c2cccc(Cl)c2)nc2ccccc12)c1ccccc1` (stereo not drawn) [Example 77] the figure was 161 to 163 °C.

In turn, `COC(=O)C(NC(=O)c1cc(-c2ccccc2Cl)nc2ccccc12)c1ccccc1` (stereo not drawn) [Example 78] registered a melting point of 175 to 178 °C.

With `COC(=O)C(NC(=O)c1cc(-c2ccccc2)nc2c(OC(C)=O)cccc12)c1ccccc1` (stereo not drawn) [Example 80], the melting point was 193 to 194 °C. Regarding `COC(=O)C(NC(=O)c1cc(-c2ccccc2)nc2c(O)cccc12)c1ccccc1` (stereo not drawn) [Example 81], the melting point lay within 178 to 180 °C. Same read-out and setting: with `COC(=O)C(NC(=O)c1cc(-c2ccc(Cl)cc2Cl)nc2ccccc12)c1ccccc1` (stereo not drawn) [Example 82] the figure was 142 to 143 °C; with `O=C(NC(c1ccccc1)c1ccccc1)c1cc(-c2ccccc2)nc2ccccc12` [Example 84], 182 to 184 °C; with `COC(=O)C(NC(=O)c1c(O)c(-c2ccccc2)nc2ccccc12)c1ccccc1` (stereo not drawn) [Example 87], 125 to 127 °C.

Consider `CN(C)CC(NC(=O)c1cc(-c2ccccc2)nc2ccccc12)c1ccccc1` (stereo not drawn) [Example 88], for which the melting point is 133 to 135 °C. Same read-out and setting: then `CN(C)C(=O)C(NC(=O)c1cc(-c2ccccc2)nc2ccccc12)c1ccccc1` (stereo not drawn) [Example 89], with 219 to 221 °C; and `NC(=O)C(NC(=O)c1cc(-c2ccccc2)nc2ccccc12)c1ccccc1` (stereo not drawn) [Example 90], with 237 to 238 °C. `O=C(NC(C(=O)N1CCCC1)c1ccccc1)c1cc(-c2ccccc2)nc2ccccc12` (stereo not drawn) [Example 91] yielded a melting point of 199 to 200 °C.

The target of the next series is T1, NK3 receptor (Cavia porcellus, UniProt P30098).
T1 sequence (P30098 1-440): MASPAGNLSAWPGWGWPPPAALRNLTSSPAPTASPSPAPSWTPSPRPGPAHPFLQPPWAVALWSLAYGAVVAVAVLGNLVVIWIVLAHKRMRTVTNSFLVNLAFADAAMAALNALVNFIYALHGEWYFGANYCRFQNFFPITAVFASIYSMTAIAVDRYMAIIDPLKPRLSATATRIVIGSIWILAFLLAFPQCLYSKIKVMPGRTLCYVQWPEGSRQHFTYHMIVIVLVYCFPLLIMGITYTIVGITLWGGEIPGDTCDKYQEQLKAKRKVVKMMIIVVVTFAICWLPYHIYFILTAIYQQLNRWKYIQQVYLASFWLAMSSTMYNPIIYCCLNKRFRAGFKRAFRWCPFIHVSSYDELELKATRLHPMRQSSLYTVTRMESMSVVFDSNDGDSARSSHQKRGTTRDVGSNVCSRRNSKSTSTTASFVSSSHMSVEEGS
The series can be described thus: Binding: displacement of [3H]-Senktide / [125I]-[Me-Phe7]-NKB, guinea-pig cortex membranes.
Protocol: The activity of the compounds of the present invention, as NK3 ligands, is determined by their ability to inhibit the binding of the radiolabelled NK3 ligands, [^125I]-[Me-Phe^7]-NKB or [^3H]-Senktide, to guinea-pig and human NK3 receptors (Renzetti et al, 1991, Neuropeptide, 18, 104-114; Buell et al, 1992, FEBS, 299(1), 90-95; Chung et al, 1994, Biochem. Biophys. Res. Commun., 198(3), 967-972). […] Binding assays provide for each compound tested a mean IC50 value of 2-5 separate experiments performed in duplicate or triplicate. […] The NK3-antagonist activity of the compounds of the present invention is determined by their ability to inhibit senktide-induced contraction of the guinea-pig ileum (Maggi et al, 1990, Br. J. PharmacoL, 101, 996-1000) and rabbit isolated iris sphincter muscle (Hall et al., 1991, Eur. J. PharmacoL, 199, 9-14) and human NK3 receptors-mediated Ca^++ mobilization (Mochizuki et al, 1994, J. Bio. Chem., 269, 9651-9658). Guinea-pig and rabbit in-vitro functional assays provide for each compound tested a mean KB value of 3-8 separate experiments, where KB is the concentration of the individual compound required to produce a 2-fold rightward shift in the concentration-response curve of senktide. Human receptor functional assay allows the determination of the concentration of the individual compound required to reduce by 50% (IC50 values) the Ca^++ mobilization induced by the agonist NKB.
For `CCC(NC(=O)c1c(C)c(-c2ccccc2)nc2ccccc12)c1ccccc1` (stereo not drawn) [Example 22], the pKi was 8.25.

What is called melting point is the temperature of the solid-liquid transition. One may read the pKi as −log10 of the Ki, conventionally taken in molar units. A higher pKi goes with a low Ki.
